Results on three compounds are retold here after patent publication US20120171274A1, “TRANSDERMAL PATCH” (priority 2006, published 2012).

The nature of data set [1]: Solvency of the active substance in monomer (visual inspection). The conditions noted are these: 3 parts active substance per 100 parts monomer, 25° C., 7 days. It is filed as physicochemical. More on the design: key: Excellent: The active substance was not found to have been precipitated in the solution of active substance both immediately after the preparation and after the preservation for 7 days.; Good: The active substance was found to have been precipitated in the solution of active substance immediately after the preparation, but the active substance was not found to have been precipitated in the solution of active substance after the preservation for 7 days.; Poor: The active substance was found to have been precipitated in the solution of active substance both immediately after the preparation and after the preservation for 7 days.

Data set [2] in a line: Residual rate of the active substance in monomer solution (HPLC). It is filed as physicochemical. Particulars: for Residual Rate of active substance, Immediately after Preparation: 3 parts per 100 parts monomer; for Residual Rate of active substance, after 7 Days: preserved at 25° C. for 7 days.
The mark [3] stands for this setting: monomer: 2-Ethylhexyl Methacrylate.

SMILES strings stand for the structures.

Consider `CC(C)(C)NCC(O)c1ccccc1Cl` (stereo not drawn) [TB, tulobuterol], for which the “Solvency of active substance” value in data set [1] (monomer: 1-Vinyl-2-Pyrrolidone), in data set [1] (monomer: 2-Ethylhexyl Acrylate), in data set [1] (setting [3]), in data set [1] (monomer: Acrylic Acid), in data set [1] (monomer: Butyl Acrylate) and in data set [1] (monomer: Butyl Methacrylate) was “Excellent” in each case. In addition, the “Solvency of active substance” value was “Good” in data set [1] (monomer: Dodecyl Methacrylate) and “Excellent” in data set [1] (monomer: Ethyl Acrylate). Besides, the “Residual Rate of active substance, Immediately after Preparation” value (“Residual Rate … after Preparation” for short) in data set [2] (monomer: 1-Vinyl-2-Pyrrolidone), in data set [2] (monomer: 2-Ethylhexyl Acrylate), in data set [2] (setting [3]), in data set [2] (monomer: Acrylic Acid), in data set [2] (monomer: Butyl Acrylate) and in data set [2] (monomer: Butyl Methacrylate) was 100 % by weight throughout. Besides, the “Residual Rate … after Preparation” value in data set [2] (monomer: Dodecyl Methacrylate) and in data set [2] (monomer: Ethyl Acrylate) was 100 % by weight each time. Further, the “Residual Rate of active substance, after 7 Days” value (“Residual Rate … after 7 Days” below) in data set [2] (monomer: 1-Vinyl-2-Pyrrolidone) came to 100 % by weight; in data set [2] (monomer: 2-Ethylhexyl Acrylate), 88 % by weight; in data set [2] (setting [3]), 100 % by weight; in data set [2] (monomer: Acrylic Acid) it was 96 % by weight; in data set [2] (monomer: Butyl Acrylate), 81 % by weight; in data set [2] (monomer: Butyl Methacrylate), 100 % by weight. Moreover, the “Residual Rate … after 7 Days” value in data set [2] (monomer: Dodecyl Methacrylate) amounted to 100 % by weight; in data set [2] (monomer: Ethyl Acrylate), 70 % by weight.
For `O=[N+]([O-])O[C@H]1CO[C@H]2[C@@H]1OC[C@H]2O[N+](=O)[O-]` [ISDN, isosorbide dinitrate], the “Solvency of active substance” value in data set [1] (monomer: 1-Vinyl-2-Pyrrolidone), in data set [1] (monomer: 2-Ethylhexyl Acrylate), in data set [1] (setting [3]), in data set [1] (monomer: Acrylic Acid), in data set [1] (monomer: Butyl Acrylate) and in data set [1] (monomer: Butyl Methacrylate) was “Excellent” in each case. Also, the “Solvency of active substance” value in data set [1] (monomer: Dodecyl Methacrylate) and in data set [1] (monomer: Ethyl Acrylate) was “Excellent” in each case. The “Residual Rate … after Preparation” value in data set [2] (monomer: 1-Vinyl-2-Pyrrolidone), in data set [2] (monomer: 2-Ethylhexyl Acrylate), in data set [2] (setting [3]), in data set [2] (monomer: Acrylic Acid), in data set [2] (monomer: Butyl Acrylate) and in data set [2] (monomer: Butyl Methacrylate) was 100 % by weight each time. In addition, the “Residual Rate … after Preparation” value in data set [2] (monomer: Dodecyl Methacrylate) and in data set [2] (monomer: Ethyl Acrylate) was 100 % by weight each time. Moreover, the “Residual Rate … after 7 Days” value was determined as 100 % by weight in data set [2] (monomer: 1-Vinyl-2-Pyrrolidone); 100 % by weight in data set [2] (monomer: 2-Ethylhexyl Acrylate); 99 % by weight in data set [2] (setting [3]); 100 % by weight in data set [2] (monomer: Acrylic Acid); 100 % by weight in data set [2] (monomer: Butyl Acrylate); 100 % by weight in data set [2] (monomer: Butyl Methacrylate). Also, the “Residual Rate … after 7 Days” value in data set [2] (monomer: Dodecyl Methacrylate) and in data set [2] (monomer: Ethyl Acrylate) was 100 % by weight throughout.
On to `COc1ccc2c(c1)c(CC(=O)O)c(C)n2C(=O)c1ccc(Cl)cc1` [IMT, indomethacin], for which the “Solvency of active substance” value in data set [1] (monomer: 1-Vinyl-2-Pyrrolidone) was “Excellent”; in data set [1] (monomer: 2-Ethylhexyl Acrylate), “Poor”; in data set [1] (setting [3]), “Poor”; in data set [1] (monomer: Acrylic Acid) it was “Excellent”; in data set [1] (monomer: Butyl Acrylate) it was “Poor”; in data set [1] (monomer: Butyl Methacrylate), “Poor”. For the same compound, the “Solvency of active substance” value in data set [1] (monomer: Dodecyl Methacrylate) and in data set [1] (monomer: Ethyl Acrylate) was “Poor” in each case. Besides, the “Residual Rate … after Preparation” value in data set [2] (monomer: 1-Vinyl-2-Pyrrolidone), in data set [2] (monomer: 2-Ethylhexyl Acrylate), in data set [2] (setting [3]), in data set [2] (monomer: Acrylic Acid), in data set [2] (monomer: Butyl Acrylate) and in data set [2] (monomer: Butyl Methacrylate) was 100 % by weight throughout. Also, the “Residual Rate … after Preparation” value in data set [2] (monomer: Dodecyl Methacrylate) and in data set [2] (monomer: Ethyl Acrylate) was 100 % by weight throughout. Also, the “Residual Rate … after 7 Days” value in data set [2] (monomer: 1-Vinyl-2-Pyrrolidone) was determined as 100 % by weight; in data set [2] (monomer: 2-Ethylhexyl Acrylate), 100 % by weight; in data set [2] (setting [3]), 100 % by weight; in data set [2] (monomer: Acrylic Acid) it was 100 % by weight; in data set [2] (monomer: Butyl Acrylate), 100 % by weight; in data set [2] (monomer: Butyl Methacrylate) it was 99 % by weight. Besides, the “Residual Rate … after 7 Days” value in data set [2] (monomer: Dodecyl Methacrylate) amounted to 100 % by weight; in data set [2] (monomer: Ethyl Acrylate), 99 % by weight.
